pIC50: −log10 of the molar value. Read-outs that look alike come from different tables or passages of the source.
Experiments:
[1] = tested on: Phosphorylation of ERK1/2 in MIA PaCa-2 cells; assay: Phospho-ERK1/2 MSD assay in MIA PaCa-2 cells; type: cell-based; settings: read-out: p-ERK IC50 (2 h; MIA PaCa-2), 2 h compound treatment
Procedure: For compounds in Table 89, the following assay conditions were employed:
Phospho-ERK1/2 MSD Assay:
Sixteen hours prior to compound treatment, MIA PaCa-2 or A549 cells were seeded in 96-well cell culture plates at a density of 25,000 cells/well and incubated at 37° C., 5% CO2. A compound dose-response titration was diluted in growth media, added to appropriate wells of a cell culture plate, and then incubated at 37° C., 5% CO2 for 2 or 4 hours (see Table 15). Following compound treatment, cells were stimulated with 10 ng/mL EGF (Roche 11376454001) for 10 min, washed with ice-cold Dulbecco's phosphate-buffered saline, no Ca^2+ or Mg^2+ (ThermoFisher Scientific 14190144), and then lysed in RIPA buffer (50 mM Tris-HCl pH 7.5, 1% Igepal, 0.5% sodium deoxycholate, 150 mM NaCl, and 0.5% sodium dodecyl sulfate) containing protease inhibitors (Roche 4693132001) and phosphatase inhibitors (Roche 4906837001). Phosphorylation of ERK1/2 in compound-treated lysates was assayed using Phospho-ERK1/2 Whole Cell Lysate kits (Meso Scale Discovery K151DWD) according to the manufacturer's protocol. Assay plates were read on a Meso Scale Discovery Sector Imager 6000, and data were analyzed using a 4-parameter logistic model to calculate IC50 values.

[2] = biological target: GDP-bound KRAS protein (aa 1-169), containing both G12C and C118A amino acid substitutions (Homo sapiens, UniProt P01116, C118A/G12C); assay: Coupled nucleotide exchange assay (SOS-mediated, AlphaScreen); type: biochemical; settings: 5 min compound pre-incubation; for pIC50: read-out: Coupled exchange IC50 (5 min)

Molecule	pIC50 [1]	pIC50 [2]	pIC50 ([1]; Homo sapiens, MIA PaCa-2, 2 h)	Coupled exchange IC50 (5 min) [2]
6-Chloro-7-(2-fluoro-6-hydroxyphenyl)-4-((2S)-2-methyl-4-(2-propenoyl)-1-piperazinyl)-1-(2-(methylsulfonyl)phenyl)pyrido[2,3-d]pyrimidin-2(1H)-one [Example 54-1]	6.96	6.65		
C=CC(=O)N1CCN(c2nc(=O)n(-c3c(C)cccc3C(C)C)c3nc(-c4ccccc4F)c(Cl)cc23)[C@@H](C)C1 (atropisomer, axis not shown; (M)) [Example 64-1, (M)-6-Chloro-7-(2-fluorophenyl)-1-(2-methyl-6-(2-propanyl)phenyl)-4-((2S)-2-methyl-4-(2-propenoyl)-1-piperazinyl)pyrido[2,3-d]pyrimidin-2(1H)-one]	7.12	7.36		
C=CC(=O)N1CCN(c2nc(=O)n(-c3c(C)ccnc3C(C)C)c3nc(-c4nc(N)ccc4Cl)c(F)cc23)C(C)C1 (atropisomer, axis not shown; (M)) [Example 65-1, (M)-7-(6-Amino-3-chloro-2-pyridinyl)-6-fluoro-1-(4-methyl-2-(2-propanyl)-3-pyridinyl)-4-((2S)-2-methyl-4-(2-propenoyl)-1-piperazinyl)pyrido[2,3-d]pyrimidin-2(1H)-one]			5.82	0.606 | nda μM
C=CC(=O)N1CCN(c2nc(=O)n(-c3c(C)ccnc3C(C)C)c3nc(-c4c(O)cc(F)cc4F)c(F)cc23)[C@@H](C)C1 (atropisomer, axis not shown; (M)) [Example 65-3, (M)-7-(2,4-difluoro-6-hydroxyphenyl)-6-fluoro-1-(4-methyl-2-(2-propanyl)-3-pyridinyl)-4-((2S)-2-methyl-4-(2-propenoyl)-1-piperazinyl)pyrido[2,3-d]pyrimidin-2(1H)-one]			7.00	0.096 | nda μM
C=CC(=O)N1CCN(c2nc(=O)n(-c3c(C)ccnc3C(C)C)c3nc(-c4cc(F)c(F)cc4O)c(F)cc23)[C@@H](C)C1 (atropisomer, axis not shown; (M)) [Example 72-2, (M)-7-(4,5-difluoro-2-hydroxyphenyl)-6-fluoro-1-(4-methyl-2-(2-propanyl)-3-pyridinyl)-4-((2S)-2-methyl-4-(2-propenoyl)-1-piperazinyl)pyrido[2,3-d]pyrimidin-2(1H)-one]			6.23	0.534 | nda μM
C=CC(=O)N1CCN(c2nc(=O)n(-c3c(C)ccnc3C(C)C)c3nc(-c4c(C)cccc4O)c(F)cc23)[C@@H](C)C1 (atropisomer, axis not shown; (M)) [Example 72-4, (M)-6-fluoro-7-(2-hydroxy-6-methylphenyl)-1-(4-methyl-2-(2-propanyl)-3-pyridinyl)-4-((2S)-2-methyl-4-(2-propenoyl)-1-piperazinyl)pyrido[2,3-d]pyrimidin-2(1H)-one]			6.94	0.08 | nda μM
C=CC(=O)N1CCN(c2nc(=O)n(-c3c(C)ccnc3C(C)C)c3nc(-c4cc(OC)c(F)cc4F)c(F)cc23)[C@@H](C)C1 (atropisomer, axis not shown; (M)) [Example 72-6, (M)-7-(2,4-difluoro-5-methoxyphenyl)-6-fluoro-1-(4-methyl)-2-(2-propanyl)-3-pyridinyl)-4-((2S)-(2-methyl-4-(2-propenoyl)-1-piperazinyl)pyrido[2,3-d]pyrimidin-2(1H)-one]			6.25	0.315 | nda μM
C=CC(=O)N1CCN(c2nc(=O)n(-c3c(C)ccnc3C(C)C)c3nc(-c4cc(O)c(F)cc4F)c(F)cc23)[C@@H](C)C1 (atropisomer, axis not shown; (M)) [Example 72-7, (M)-7-(2,4-difluoro-5-hydroxyphenyl)-6-fluoro-1-(4-methyl-2-(2-propanyl)-3-pyridinyl)-4-((2S)-2-methyl-4-(2-propenoyl)-1-piperazinyl)pyrido[2,3-d]pyrimidin-2(1H)-one]			5.65	0.262 | nda μM
C=CC(=O)N1CCN(c2nc(=O)n(-c3c(C)ccnc3C(C)C)c3nc(-c4c(O)ccc(F)c4F)c(F)cc23)[C@@H](C)C1 (atropisomer, axis not shown; (M)) [Example 72-8, (M)-7-(2,3-difluoro-6-hydroxyphenyl)-6-fluoro-1-(4-methyl-2-(2-propanyl)-3-pyridinyl)-4-((2S)-2-methyl-4-(2-propenoyl)-1-piperazinyl)pyrido[2,3-d]pyrimidin-2(1H)-one]			7.04	0.042 | nda μM
C=CC(=O)N1CCN(c2nc(=O)n(-c3c(C)ccnc3C(C)C)c3nc(-c4c(F)ccc(F)c4O)c(F)cc23)[C@@H](C)C1 (atropisomer, axis not shown; (M)) [Example 72-9, (M)-7-(3,6-difluoro-2-hydroxyphenyl)-6-fluoro-1-(4-methyl-2-(2-propanyl)-3-pyridinyl)-4-((2S)-2-methyl-4-(2-propenoyl)-1-piperazinyl)pyrido[2,3-d]pyrimidin-2(1H)-one]			6.26	0.191 | nda μM
C=CC(=O)N1CCN(c2nc(=O)n(-c3c(C)ccnc3C(C)C)c3nc(-c4c(F)ccc(C)c4O)c(F)cc23)[C@@H](C)C1 (atropisomer, axis not shown; (M)) [Example 72-10, (M)-6-fluoro-7-(6-fluoro-2-hydroxy-3-methylphenyl)-1-(4-methyl-2-(2-propanyl)-3-pyridinyl)-4-((2S)-2-methyl-4-(2-propenoyl)-1-piperazinyl)pyrido[2,3-d]pyrimidin-2(1H)-one]			6.82	0.158 | nda μM
C=CC(=O)N1CCN(c2nc(=O)n(-c3c(C)ccnc3C(C)C)c3nc(-c4c(N)cccc4F)c(F)cc23)[C@@H](C)C1 (atropisomer, axis not shown; (M)) [Example 72-11, (M)-7-(2-amino-6-fluorophenyl)-6-fluoro-1-(4-methyl-2-(2-propanyl)-3-pyridinyl)-4-((2S)-2-methyl-4-(2-propenoyl)-1-piperazinyl)pyrido[2,3-d]pyrimidin-2(1H)-one]			7.36	0.039 | nda μM
C=CC(=O)N1C[C@H](C)N(c2nc(=O)n(-c3c(C)ccnc3C(C)C)c3nc(-c4c(N)cccc4F)c(F)cc23)[C@@H](C)C1 (atropisomer, axis not shown; (M)) [Example 72-13, (M)-7-(2-amino-6-fluorophenyl)-4-((2S,6S)-2,6-dimethyl-4-(2-propenoyl)-1-piperazinyl)-6-fluoro-1-(4-methyl-2-(2-propanyl)-3-pyridinyl)pyrido[2,3-d]pyrimidin-2(1H)-one]			7.92	0.021 | nda μM
C=CC(=O)N1C[C@H](C)N(c2nc(=O)n(-c3c(C)ccnc3C(C)C)c3nc(-c4ccccc4F)c(F)cc23)[C@@H](C)C1 (atropisomer, axis not shown; (M)) [Example 72-14, (M)-4-((2S,6S)-2,6-dimethyl-4-(2-propenoyl)-1-piperazinyl)-6-fluoro-7-(2-fluorophenyl)-1-(4-methyl-2-(2-propanyl)-3-pyridinyl)pyrido[2,3-d]pyrimidin-2(1H)-one]			7.26	0.081 | nda μM
